In brackets after ≈: the same amount, converted by molar mass. Where two headings read alike, the source gives them in different places.
Key:
S. Pneumoniae UC ® 9912 = experiment: Minimum inhibitory concentration (MIC) by agar dilution; type: cell-based; conditions: Streptococcus pneumoniae, UC9912
Description: (§1) The oxazolidinone compounds of the present invention have useful activity against a variety of microorganisms. The in vitro activity of compounds of the present invention are assessed by standard testing procedures such as the determination of minimum inhibitory concentration (MIC) by agar dilution as described in “Methods for Dilution Antimicrobial Susceptiblity Tests for Bacteria That Grow Aerobically” (MFT) published January 1993 by the National Committee for Clinical Laboratory Standards (NCCLS), 771 East Lancaster Avenue, Villanova, Pa. 19084, USA. The activity of selected compounds of the present invention against Staphylococcus aureus and Streptococcus pneumoniae are shown in Table 2.

S. Aureus UC ® 9213 = experiment: as above; type: cell-based; conditions: Staphylococcus aureus, UC9213
Description: as §1

[1] = Solubility in pH 7, 50 mM phosphate buffer; type: physicochemical; conditions: thermodynamic from solid
Description: The samples are capped and stirred via magnetic stir bars for 24 to 48 hours at room temperature. Samples are filter centrifuged (800×g) for 5-10 minutes through Millipore Ultrafree-MC 0.22 Micron filter units. The supernate is analyzed by either UV or HPLC to quantitate the drug concentration.

[2] = Reduction of the N-oxide in vivo following intravenous and oral administration to rats; design: species or system male Sprague-Dawley rats; conditions: rat
Description: The rate and extent of reduction of the N-oxide of Example 2 was investigated in vivo using the following procedures: Six male Sprague-Dawley rats are used for this study. Three rats are given a single intravenous 10 mg/kg dose of the N-oxide and three rats are given a single oral 25 mg/kg dose of the N-oxide. Blood is collected pre-dose and up to 24 h post dose. The plasma is analyzed for the N-oxide and the parent amine by LC-MS.

[3] = aqueous buffer, pH 7, 50 mM phosphate buffer or other vehicle, room temperature, 24 to 48 hours, read-out: N-Oxide Solubility
[4] = aqueous buffer, parent amine of the example's N-oxide, pH 7, 50 mM phosphate buffer or other vehicle, room temperature, 24 to 48 hours, read-out: Parent Amine Solubility

Structure (SMILES) | melting point | MIC (S. Pneumoniae UC ® 9912) | MIC (S. Aureus UC ® 9213) | solubility [1, 3] | solubility [1, 4] | further results
CC(=O)NC[C@H]1CN(c2cc(F)c([N+]3([O-])CCN(C(=O)CO)CC3)c(F)c2)C(=O)O1 [Example 4, (S)-N-[[3-[3,5-difluoro-4-[4-(hydroxyacetyl)-1-piperazinyl]phenyl]-2-oxo-5-oxazolidinyl]-methyl]acetamide N-oxide] | 100 to 105 °C | 0.5 µg/mL (≈ 0.00117 mM) | 2 µg/mL (≈ 0.00467 mM) | – | – | –
CC(=O)NC[C@H]1CN(c2ccc(N3CCOCC3)c(F)c2)C(=O)O1 [parent amine of Example 2, (S )-N-[[3-[3 -Fluoro-4-(4-morpholinyl)phenyl]-2-oxo-5-oxazolidinyl]methyl]-acetamide, reference compound] | – | – | – | – | – | time parent amine detected in plasma post dosing ([2]; after dosing of the N-oxide, lower limit of quantitation ≈0.01 μg/mL): up to 10 h
CC(=O)NC[C@H]1CN(c2ccc([N+]3([O-])CCOCC3)c(F)c2)C(=O)O1 [Example 2] | 202 to 204 °C | 1 µg/mL (≈ 0.00283 mM) | 4 µg/mL (≈ 0.0113 mM) | 534000 µg/mL (≈ 1510 mM) | – | N-oxide found in plasma ([2]; 10 mg/kg intravenous N-oxide, first time point immediately post injection, LC-MS): Only traces; Cmax, Tmax and AUC values for the parent amine compared with direct administration of the parent amine ([2]; N-oxide 10 mg/kg intravenous and 25 mg/kg oral, same doses and protocol): very similar; conversion of the N-oxide to the parent amine in vivo ([2]; intravenous and oral dosing): rapid and essentially quantitative; solubility ([1]; water, value stated, read-out: water solubility): 409000 µg/mL (≈ 1160 mM)
CC(=O)NC[C@H]1CN(c2ccc([N+]3([O-])CCN(C(=O)CO)CC3)c(F)c2)C(=O)O1 (hydrate or solvate) [Example 1, (S)-N-[[3-[3-fluoro4-[4-(hydroxyacetyl)-1-piperazinyl]phenyl]-2-oxo-5-oxazolidinyl]-methyl]acetamide N-oxide] | 158 to 160 °C | – | – | – | – | –
CC(=O)NC[C@H]1CN(c2ccc([N+]3([O-])CCN(C(=O)CO)CC3)c(F)c2)C(=O)O1 [Example 1, (S)-N-[[3-[3-fluoro4-[4-(hydroxyacetyl)-1-piperazinyl]phenyl]-2-oxo-5-oxazolidinyl]-methyl]acetamide N-oxide] | – | 0.5 µg/mL (≈ 0.00122 mM) | 2 µg/mL (≈ 0.00487 mM) | 348000 µg/mL (≈ 848 mM) | – | –

More lines, main results first:

melting point | MIC (S. Pneumoniae UC ® 9912) | MIC (S. Aureus UC ® 9213) | solubility [1, 3] | solubility [1, 4] | Structure (SMILES) | further results
190 to 192 °C | 0.25 µg/mL (≈ 0.000483 mM) | 2 µg/mL (≈ 0.00386 mM) | 1100 µg/mL (≈ 2.13 mM) | – | CC(=O)NC[C@H]1CN(c2ccc([N+]3([O-])CCN(S(=O)(=O)c4ccccc4C#N)CC3)c(F)c2)C(=O)O1 [Example 6, (S)-N-[[3-[4-[4-[(2-cyanophenyl)sulfonyl]-1-piperazinyl]-3-fluorophenyl]-2-oxo-5-oxazolidinyl]methyl]acetamide N-oxide] | –
– | – | – | – | 31 µg/mL (≈ 0.0618 mM) | CC(=O)NC[C@H]1CN(c2ccc(N3CCN(S(=O)(=O)c4ccccc4C#N)CC3)c(F)c2)C(=O)O1 [parent amine of Example 6, (S)-N-[[3-[4-[4-[(2-cyanophenyl)sulfonyl]-1-piperazinyl]-3-fluorophenyl]-2-oxo-5-oxazolidinyl]methyl]acetamide, reference compound] | –
– | – | – | – | 4200 µg/mL (≈ 10.6 mM) | CC(=O)NC[C@H]1CN(c2ccc(N3CCN(C(=O)CO)CC3)c(F)c2)C(=O)O1 [parent amine of Example 1, (S)-N-[[3-[3-Fluoro-4-[4-(hydroxyacetyl)-1-piperazinyl]-phenyl]-2-oxo-5-oxazolidinyl]methyl]-acetamide, reference compound] | –
– | – | – | – | 280 µg/mL (≈ 0.676 mM) | CC(=O)NC[C@H]1CN(c2ccc(N3CCN(S(C)(=O)=O)CC3)c(F)c2)C(=O)O1 [parent amine of Example 3, (S)-N-[[3-[3-fluoro-4-[4-(methylsulfonyl)-1-piperazinyl]phenyl]-2-oxo-5-oxazolidinyl]-methyl]acetamide, reference compound] | –
153 to 156 °C | 0.5 µg/mL (≈ 0.0011 mM) | 4 µg/mL (≈ 0.00878 mM) | – | – | CC(=O)[NH+]([O-])C[C@@H]1CN(c2ccc(N3CCN(S(=O)(=O)CC#N)CC3)c(F)c2)C(=O)O1 (stereo partly drawn) [Example 5, (S)-N-[[3-[4-[4-[(cyanomethyl)sulfonyl]-1-piperazinyl]3-fluorophenyl]-2-oxo-5-oxazolidinyl]methyl]acetamide N-oxide] | –
